The nature of data set [1]: Stereoisomer interconversion on storage in MeOH at ambient condition. Type of data set: physicochemical. The following applies: stored in MeOH at ambient condition.
The subject of data set [2] is recombinant NL4-3 virus (nef section replaced with Renilla luciferase gene) in MT-2 cells. As to the kind of experiment: HIV cell culture assay (antiviral activity, luciferase readout). Type of data set: cell-based. The following applies: MT-2 cells infected for 4-5 days with recombinant NL4-3 luciferase virus. Summed up:
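Serially diluted compounds were present throughout a 4-5 day infection of MT-2 cells by recombinant NL4-3 whose nef region partly encodes Renilla luciferase. Antiviral activity was taken from live-cell luciferase signal, with the 50% effective concentration fitted by the exponential median effect equation.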

Data set [3] in a line: Compound cytotoxicity, XTT-based colorimetric assay. Type of data set: cell-based. The following applies: human, uninfected MT2 cells, Table 1, day 4, XTT. The procedure, abridged:
(§1)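 XTT colorimetric read-out on day 4 gave CC50 values, using MT2 cells left uninfected but otherwise handled as in the antiviral assay.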

A further data set has as its system uninfected MT2 cells. Described as above. The format is cell-based. Summed up:
as §1

By EC50 is commonly meant the midpoint of the concentration-response curve. What is called CC50 is the concentration giving 50% cytotoxicity. On to `Cn1nc(NS(C)(=O)=O)c2c(Cl)ccc(-n3c([C@H](Cc4cc(F)cc(F)c4)NC(=O)Cn4nc(C(F)F)c5c4C(F)(F)C4CC54)nc4nc(Cl)ccc4c3=O)c21` (stereo in doubt) [Example 12.2, N—((S)-1-(7-chloro-3-(4-chloro-1-methyl-3-(methylsulfonamido)-1H-indazol-7-yl)-4-oxo-3,4-dihydropyrido[2,3-d]pyrimidin-2-yl)-2-(3,5-difluorophenyl)ethyl)-2-((3bS,4aR)-3-(difluoromethyl)-5,5-difluoro-3b,4,4a,5-tetrahydro-1H-cyclopropa[3,4]cyclopenta[1,2-c]pyrazol-1-yl)acetamide], for which the “conversion to another stereoisomer on storage” value (from here on “conversion”) in data set [1] is “converts slowly to one of the stereoisomers in Example 12.1”. In addition, in data set [2] (Renilla, NL43, Table 1), the EC50 is 42 nM. In data set [3], this compound yielded a 50% cytotoxic concentration (CC50) at 4 days of more than 3300 nM.
Regarding `Cn1nc(NS(C)(=O)=O)c2c(Cl)ccc(-n3c(C(Cc4cc(F)cc(F)c4)NC(=O)Cn4nc(C(F)F)c5c4C(F)(F)[C@@H]4C[C@H]54)nc4nc(C(F)(F)F)ccc4c3=O)c21` (mixture of isomers) [Example 11.1, N—((S)-1-(3-(4-chloro-1-methyl-3-(methylsulfonamido)-1H-indazol-7-yl)-4-oxo-7-(trifluoromethyl)-3,4-dihydropyrido[2,3-d]pyrimidin-2-yl)-2-(3,5-difluorophenyl)ethyl)-2-((3bS,4aR)-3-(difluoromethyl)-5,5-difluoro-3b,4,4a,5-tetrahydro-1H-cyclopropa[3,4]cyclopenta[1,2-c]pyrazol-1-yl)acetamide], in data set [1], the “conversion” value was “one of the isomers in Example 11.1 converts to Example 11.2”. The 50% effective concentration (EC50) in data set [2] (Renilla, NL43, Table 1) was 520 nM. This compound showed a CC50 at 4 days in data set [3] of more than 10000 nM.
For the compound `Cn1nc(NS(C)(=O)=O)c2c(Cl)ccc(-n3c([C@H](Cc4cc(F)cc(F)c4)NC(=O)Cn4nc(C(F)F)c5c4C(F)(F)C4CC54)nc4nc(C(F)(F)F)ccc4c3=O)c21` (stereo in doubt) [Example 11.2, N—((S)-1-(3-(4-chloro-1-methyl-3-(methylsulfonamido)-1H-indazol-7-yl)-4-oxo-7-(trifluoromethyl)-3,4-dihydropyrido[2,3-d]pyrimidin-2-yl)-2-(3,5-difluorophenyl)ethyl)-2-((3bS,4aR)-3-(difluoromethyl)-5,5-difluoro-3b,4,4a,5-tetrahydro-1H-cyclopropa[3,4]cyclopenta[1,2-c]pyrazol-1-yl)acetamide], the “conversion” value in data set [1] was “converts slowly to one of the isomers in Example 11.1”. In data set [2] (Renilla, NL43, Table 1), the EC50 stood at 51 nM. For the same compound, the CC50 at 4 days in data set [3] was more than 10000 nM.
On to `Cn1nc(NS(C)(=O)=O)c2c(Cl)ccc(-n3c([C@H](Cc4cc(F)cc(F)c4)NC(=O)Cn4nc(C(F)F)c5c4C(F)(F)[C@@H]4C[C@H]54)nc4cc(C(C)(C)C)ccc4c3=O)c21` (mixture of isomers) [Example 216, N—((S)-1-(7-(tert-Butyl)-3-(4-chloro-1-methyl-3-(methylsulfonamido)-1H-indazol-7-yl)-4-oxo-3,4-dihydroquinazolin-2-yl)-2-(3,5-difluorophenyl)ethyl)-2-((3bS,4aR)-3-(difluoromethyl)-5,5-difluoro-3b,4,4a,5-tetrahydro-1H-cyclopropa[3,4]cyclopenta[1,2-c]pyrazol-1-yl)acetamide], for which, in data set [2] (Table 1a), the EC50 was 0.059 nM. This compound also came in with a CC50 in the data set on uninfected MT2 cells (Table 1a, day 4, XTT) of more than 1000 nM.
For the compound `Cn1nc(NS(C)(=O)=O)c2c(Cl)ccc(-c3cc4cc[nH]c4nc3C(Cc3cc(F)cc(F)c3)NC(=O)Cn3nc(C(F)F)c4c3C(F)(F)[C@@H]3C[C@H]43)c21` (single isomer, unassigned) [Example 86], in data set [2] (Table 1a), the EC50 turned out to be 1100 nM. Besides, the 50% cytotoxic concentration (CC50) with uninfected MT2 cells (Table 1a, day 4, XTT) is more than 10000 nM.
Take `Cc1ccn(CC(=O)N[C@@H](Cc2cc(F)cc(F)c2)c2nc3ncccc3c(=O)n2-c2ccc(Cl)c3c(NS(C)(=O)=O)nn(C)c23)n1` (single isomer, unassigned) [Example 47.2]: the EC50 in data set [2] (Table 1a) turned out to be 1.7 nM. Also, the CC50 in the data set on uninfected MT2 cells (Table 1a, day 4, XTT) was more than 1000 nM.
For the compound `Cn1nc(NS(C)(=O)=O)c2c(Cl)ccc(-n3c([C@H](Cc4cc(F)cc(F)c4)NC(=O)Cn4nc(C(F)F)c5c4C(F)(F)[C@@H]4C[C@H]54)nc4cc(S(C)(=O)=O)ccc4c3=O)c21` (mixture of isomers) [Example 200, N—((S)-1-(3-(4-chloro-1-methyl-3-(methylsulfonamido)-1H-indazol-7-yl)-7-(methylsulfonyl)-4-oxo-3,4-dihydroquinazolin-2-yl)-2-(3,5-difluorophenyl)ethyl)-2-((3bS,4aR)-3-(difluoromethyl)-5,5-difluoro-3b,4,4a,5-tetrahydro-1H-cyclopropa[3,4]cyclopenta[1,2-c]pyrazol-1-yl)acetamide], the EC50 in data set [2] (Table 1a) was determined as 0.2 nM. The compound further yielded a CC50 with uninfected MT2 cells (Table 1a, day 4, XTT) of more than 1000 nM.
On to `Cn1nc(NS(C)(=O)=O)c2c(Cl)ccc(-n3c([C@H](Cc4cc(F)cc(F)c4)NC(=O)Cn4nc(C(F)F)c5c4C(F)(F)[C@@H]4C[C@H]54)nc4cc(CS(C)(=O)=O)ccc4c3=O)c21` (mixture of isomers) [Example 202, N—((S)-1-(3-(4-chloro-1-methyl-3-(methylsulfonamido)-1H-indazol-7-yl)-7-((methylsulfonyl)methyl)-4-oxo-3,4-dihydroquinazolin-2-yl)-2-(3,5-difluorophenyl)ethyl)-2-((3bS,4aR)-3-(difluoromethyl)-5,5-difluoro-3b,4,4a,5-tetrahydro-1H-cyclopropa[3,4]cyclopenta[1,2-c]pyrazol-1-yl)acetamide], for which, in data set [2] (Table 1a), the EC50 worked out at 0.3 nM. This compound returned a CC50 in the data set with uninfected MT2 cells (Table 1a, day 4, XTT) of more than 1000 nM.
As to `Cn1nc(NS(C)(=O)=O)c2c(Cl)ccc(-c3cc4[nH]ccc4nc3C(Cc3cc(F)cc(F)c3)NC(=O)Cn3nc(C(F)F)c4c3C(F)(F)[C@@H]3C[C@H]43)c21` (single isomer, unassigned) [Example 5.3], in data set [2] (Table 1), the EC50 worked out at 0.2 nM. The same compound returned a CC50 in the data set on uninfected MT2 cells (Table 1, day 4, XTT) of more than 10000 nM.
In the case of `Cc1cccc2c(=O)n(-c3ccc(Cl)c4c(NS(C)(=O)=O)nn(C)c34)c([C@H](Cc3cc(F)cc(F)c3)NC(=O)Cn3nc(C(F)F)c4c3C(F)(F)[C@@H]3C[C@H]43)nc12` (single isomer, unassigned) [Example 98], the EC50 in data set [2] (Table 1a) was 0.747 nM. The same compound had a CC50 in the data set with uninfected MT2 cells (Table 1a, day 4, XTT) of more than 1000 nM.
The like results for `Cn1nc(NS(C)(=O)=O)c2c(Cl)ccc(-n3c([C@H](Cc4cc(F)cc(F)c4)NC(=O)Cn4nc(C(F)F)c5c4C(F)(F)[C@@H]4C[C@H]54)nc4cc(C(F)(F)F)ccc4c3=O)c21` (single isomer, unassigned) [Example 138] were, in that order, 0.042 nM and more than 1000 nM.

The values above are taken from patent US10954252B1, “Inhibitors of human immunodeficiency virus replication” (ViiV HEALTHCARE UK (NO.5) LIMITED, priority 2017, dated 2021).
